Reference: PubChem BioAssay (NCI)
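A five-concentration, 48-hour dose response in 96-well plates underlies each endpoint, interpolated linearly between surrounding concentrations. The concentration for full growth arrest is given as TGI.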

What was measured:
Experiment in all cases: NCI tumour cell line growth inhibition, 48 h
HCC-2998 colon = system: HCC-2998 colon
OVCAR-4 ovarian = system: OVCAR-4 ovarian
SF-295 CNS = system: SF-295 CNS
NCI-H226 lung = system: NCI-H226 lung
EKVX NSCLC = system: EKVX NSCLC
SW-620 colon = system: SW-620 colon
HCT-116 colon = system: HCT-116 colon
SN12C renal = system: SN12C renal
CCRF-CEM leukemia = system: CCRF-CEM leukemia
SK-OV-3 ovarian = system: SK-OV-3 ovarian
NCI-H460 lung = system: NCI-H460 lung
HCT-15 colon = system: HCT-15 colon
DMS 114 small cell lung = system: DMS 114 small cell lung
OVCAR-3 ovarian = system: OVCAR-3 ovarian
A549 NSCLC = system: A549 NSCLC
COLO 205 colon = system: COLO 205 colon
LOX IMVI melanoma = system: LOX IMVI melanoma
SNB-75 CNS = system: SNB-75 CNS
KM20L2 colon = system: KM20L2 colon
DMS 273 small cell lung = system: DMS 273 small cell lung

SMILES: COc1ccc(/C=C2\CCNC2=O)cc1
- TGI (HCC-2998 colon): > 100 µM
- TGI (OVCAR-4 ovarian): > 100 µM
- TGI (SF-295 CNS): > 100 µM
- TGI (NCI-H226 lung): > 100 µM
- TGI (EKVX NSCLC): > 80.9 µM
- TGI (SW-620 colon): > 100 µM
- TGI (HCT-116 colon): > 100 µM
- TGI (SN12C renal): > 100 µM
- TGI (CCRF-CEM leukemia): > 100 µM
- TGI (SK-OV-3 ovarian): > 100 µM
- TGI (NCI-H460 lung): > 100 µM
- TGI (HCT-15 colon): > 100 µM
- TGI (DMS 114 small cell lung): > 100 µM
- TGI (OVCAR-3 ovarian): > 100 µM
- TGI (A549 NSCLC): > 100 µM
- TGI (COLO 205 colon): > 100 µM
- TGI (LOX IMVI melanoma): > 100 µM
- TGI (SNB-75 CNS): > 79.5 µM
- TGI (KM20L2 colon): > 100 µM
- TGI (DMS 273 small cell lung): > 100 µM

SMILES: NC(CCCCCP(=O)(c1ccccc1)C1C=CC=CC1)C(=O)O (stereo not drawn)
- TGI (OVCAR-4 ovarian): > 100 µM
- TGI (SF-295 CNS): > 100 µM
- TGI (EKVX NSCLC): > 100 µM
- TGI (SW-620 colon): > 100 µM
- TGI (HCT-116 colon): > 100 µM
- TGI (SN12C renal): > 100 µM
- TGI (CCRF-CEM leukemia): > 100 µM
- TGI (SK-OV-3 ovarian): > 100 µM
- TGI (NCI-H460 lung): > 100 µM
- TGI (HCT-15 colon): > 100 µM
- TGI (OVCAR-3 ovarian): > 100 µM
- TGI (A549 NSCLC): > 100 µM
- TGI (COLO 205 colon): > 100 µM
- TGI (LOX IMVI melanoma): > 100 µM
- TGI (SNB-75 CNS): > 100 µM

SMILES: O=c1cc[nH]c(=O)[nH]1
- TGI (HCC-2998 colon): 528 µM
- TGI (OVCAR-4 ovarian): > 1000 µM
- TGI (SF-295 CNS): > 1000 µM
- TGI (NCI-H226 lung): 990 µM
- TGI (EKVX NSCLC): 488 µM
- TGI (SW-620 colon): > 1000 µM
- TGI (HCT-116 colon): > 821 µM
- TGI (SN12C renal): > 917 µM
- TGI (CCRF-CEM leukemia): > 950 µM
- TGI (SK-OV-3 ovarian): > 1000 µM
- TGI (NCI-H460 lung): 883 µM
- TGI (HCT-15 colon): > 1000 µM
- TGI (DMS 114 small cell lung): > 1000 µM
- TGI (OVCAR-3 ovarian): > 1000 µM
- TGI (A549 NSCLC): > 1000 µM
- TGI (COLO 205 colon): 384 µM
- TGI (LOX IMVI melanoma): 866 µM
- TGI (SNB-75 CNS): > 953 µM
- TGI (KM20L2 colon): > 1000 µM
- TGI (DMS 273 small cell lung): > 729 µM

SMILES: C=CCc1c(O)c2c(c3oc(=O)cc(C)c13)CC(C)O2 (stereo not drawn)
- TGI (HCC-2998 colon): > 100 µM
- TGI (OVCAR-4 ovarian): > 100 µM
- TGI (SF-295 CNS): > 100 µM
- TGI (NCI-H226 lung): > 100 µM
- TGI (EKVX NSCLC): > 100 µM
- TGI (SW-620 colon): > 100 µM
- TGI (HCT-116 colon): > 100 µM
- TGI (SN12C renal): > 100 µM
- TGI (CCRF-CEM leukemia): > 100 µM
- TGI (SK-OV-3 ovarian): > 100 µM
- TGI (NCI-H460 lung): > 100 µM
- TGI (HCT-15 colon): > 100 µM
- TGI (DMS 114 small cell lung): > 100 µM
- TGI (OVCAR-3 ovarian): > 100 µM
- TGI (A549 NSCLC): > 100 µM
- TGI (LOX IMVI melanoma): > 100 µM
- TGI (SNB-75 CNS): > 100 µM
- TGI (KM20L2 colon): > 100 µM
- TGI (DMS 273 small cell lung): > 100 µM

SMILES: CC(C)Cc1ccc(C(C)C(=O)N2CCN(/C=C/c3ccccc3)CC2)cc1 (stereo not drawn)
- TGI (HCC-2998 colon): 31.8 µM
- TGI (OVCAR-4 ovarian): 25.6 µM
- TGI (SF-295 CNS): 32.2 µM
- TGI (NCI-H226 lung): 18.1 µM
- TGI (EKVX NSCLC): 35 µM
- TGI (SW-620 colon): 30.3 µM
- TGI (HCT-116 colon): 26.3 µM
- TGI (SN12C renal): 30.8 µM
- TGI (CCRF-CEM leukemia): 37.1 µM
- TGI (SK-OV-3 ovarian): 30.3 µM
- TGI (NCI-H460 lung): 32.9 µM
- TGI (HCT-15 colon): 27.5 µM
- TGI (DMS 114 small cell lung): 24.6 µM
- TGI (OVCAR-3 ovarian): 25.9 µM
- TGI (A549 NSCLC): 29.7 µM
- TGI (COLO 205 colon): 29.5 µM
- TGI (LOX IMVI melanoma): 33.1 µM
- TGI (SNB-75 CNS): 29.1 µM
- TGI (KM20L2 colon): 29.9 µM
- TGI (DMS 273 small cell lung): 24.2 µM

SMILES: O=C1c2cccc3c2C(=O)c2c(cccc21)OCCOCCOCCOCCO3
- TGI (HCC-2998 colon): > 100 µM
- TGI (OVCAR-4 ovarian): > 100 µM
- TGI (SF-295 CNS): > 100 µM
- TGI (NCI-H226 lung): > 100 µM
- TGI (EKVX NSCLC): > 100 µM
- TGI (SW-620 colon): > 100 µM
- TGI (HCT-116 colon): > 100 µM
- TGI (SN12C renal): > 100 µM
- TGI (CCRF-CEM leukemia): > 100 µM
- TGI (SK-OV-3 ovarian): > 100 µM
- TGI (NCI-H460 lung): > 100 µM
- TGI (HCT-15 colon): > 100 µM
- TGI (DMS 114 small cell lung): > 100 µM
- TGI (OVCAR-3 ovarian): > 100 µM
- TGI (A549 NSCLC): > 100 µM
- TGI (LOX IMVI melanoma): > 100 µM
- TGI (SNB-75 CNS): > 100 µM
- TGI (KM20L2 colon): > 100 µM
- TGI (DMS 273 small cell lung): > 100 µM

SMILES: CCOc1ncn(-c2ccc(NC(=S)Nc3ncccn3)cc2)n1
- TGI (HCC-2998 colon): 46 µM
- TGI (OVCAR-4 ovarian): > 100 µM
- TGI (SF-295 CNS): > 100 µM
- TGI (EKVX NSCLC): > 100 µM
- TGI (SW-620 colon): > 100 µM
- TGI (HCT-116 colon): > 100 µM
- TGI (SN12C renal): > 100 µM
- TGI (CCRF-CEM leukemia): 59.1 µM
- TGI (SK-OV-3 ovarian): > 100 µM
- TGI (NCI-H460 lung): > 100 µM
- TGI (HCT-15 colon): > 100 µM
- TGI (OVCAR-3 ovarian): > 100 µM
- TGI (A549 NSCLC): > 100 µM
- TGI (COLO 205 colon): 81.7 µM
- TGI (LOX IMVI melanoma): 37.9 µM
- TGI (SNB-75 CNS): > 100 µM

SMILES: O=c1sc2ccccc2n1CC1CS1 (stereo not drawn)
- TGI (HCC-2998 colon): > 100 µM
- TGI (OVCAR-4 ovarian): > 100 µM
- TGI (SF-295 CNS): > 100 µM
- TGI (NCI-H226 lung): > 100 µM
- TGI (EKVX NSCLC): > 100 µM
- TGI (SW-620 colon): > 100 µM
- TGI (HCT-116 colon): > 100 µM
- TGI (SN12C renal): > 100 µM
- TGI (CCRF-CEM leukemia): > 100 µM
- TGI (SK-OV-3 ovarian): > 100 µM
- TGI (NCI-H460 lung): > 100 µM
- TGI (HCT-15 colon): > 100 µM
- TGI (DMS 114 small cell lung): > 100 µM
- TGI (OVCAR-3 ovarian): > 100 µM
- TGI (A549 NSCLC): > 100 µM
- TGI (COLO 205 colon): > 100 µM
- TGI (LOX IMVI melanoma): > 100 µM
- TGI (KM20L2 colon): > 100 µM
- TGI (DMS 273 small cell lung): > 100 µM
